Laboratory results published in patent publication US20070093520A1, “Method of treatment of diarrhea-predominant irritable bowel syndrome in a subject” (priority 2005, published 2007).

Test system: diarrhea-predominant IBS subjects
Assay: 3007 Study: open-label 52-week safety study, adverse events and withdrawals
Conditions: Overall

## Cc1nccn1C[C@H]1CCc2c(c3cccc4c3n2CCC4)C1=O [cilansetron, (R)-(−)-4,5,6,8,9,10-hexahydro-10-[(2-methyl-1H-imidazol-1-yl)methyl]-11H-pyrido-[3,2,1-jk]-carbazol-11-one]
  TEAE: Memory Loss (Excl Dementia): 1 (<1%) n (%)
  TEAE: Meniere's Disease: 1 (<1%) n (%)
  TEAE: Menorrhagia*: 2 (<1%) n (%)
  TEAE: Menstruation Irregular*: 1 (<1%) n (%)
  TEAE: Menstruation and Uterine Bleeding NEC*: 2 (<1%) n (%)
  TEAE: Menstruation with Decreased Bleeding*: 1 (<1%) n (%)
  TEAE: Menstruation with Increased Bleeding*: 3 (<1%) n (%)
  TEAE: Mental Disorders NEC: 1 (<1%) n (%)
  TEAE: Mental Status Changes: 1 (<1%) n (%)
  TEAE: Metabolic Bone Disorders: 3 (<1%) n (%)
  TEAE: Metabolism Tests NEC: 6 (1%) n (%)
  TEAE: Metabolism and Nutrition Disorders: 21 (4%) n (%)
  TEAE: Middle Ear Disorders NEC: 1 (<1%) n (%)
  TEAE: Migraine Headaches: 5 (<1%) n (%)
  TEAE: Migraine NOS: 5 (<1%) n (%)
  TEAE: Mineral and Electrolyte Analyses: 2 (<1%) n (%)
  TEAE: Monoarthritis: 2 (<1%) n (%)
  TEAE: Monocyte Count Decreased: 2 (<1%) n (%)
  TEAE: Monocyte Count Increased: 2 (<1%) n (%)
  TEAE: Mononeuropathies: 3 (<1%) n (%)
  TEAE: Motion Sickness: 1 (<1%) n (%)
  TEAE: Movement Disorder NOS: 1 (<1%) n (%)
  TEAE: Muscle Cramps: 10 (2%) n (%)
  TEAE: Muscle Infections and Inflammations: 1 (<1%) n (%)
  TEAE: Muscle Pains: 3 (<1%) n (%)
  TEAE: Muscle Related Signs and Symptoms NEC: 11 (2%) n (%)
  TEAE: Muscle Spasms: 1 (<1%) n (%)
  TEAE: Muscle Strain: 8 (1%) n (%)
  TEAE: Muscle Tone Abnormalities: 1 (<1%) n (%)
  TEAE: Muscle, Tendon and Ligament Injuries: 10 (2%) n (%)
  TEAE: Musculoskeletal Chest Pain: 1 (<1%) n (%)
  TEAE: Musculoskeletal and Connective Tissue Disorders: 87 (16%) n (%)
  TEAE: Musculoskeletal and Connective Tissue Signs and Symptoms NEC: 33 (6%) n (%)
  TEAE: Musculoskeletal and Soft Tissue Imaging Procedures: 1 (<1%) n (%)
  TEAE: Myalgia: 2 (<1%) n (%)
  TEAE: Myasthenia Gravis: 1 (<1%) n (%)
  TEAE: Mycoplasma Infections: 1 (<1%) n (%)
  TEAE: Myeloradiculopathy: 1 (<1%) n (%)
  TEAE: Myocardial Infarction: 1 (<1%) n (%)
  TEAE: Myositis: 1 (<1%) n (%)
  TEAE: Nail Fungal Infection NOS: 2 (<1%) n (%)
  TEAE: Nail Infection NOS: 1 (<1%) n (%)
  TEAE: Nail and Nail Bed Conditions (Excl Infections and Infestations): 1 (<1%) n (%)
  TEAE: Nasal Congestion and Inflammations: 8 (1%) n (%)
  TEAE: Nasopharyngitis: 28 (5%) n (%)
  TEAE: Nausea: 25 (5%) n (%)
  TEAE: Nausea and Vomiting Symptoms: 33 (6%) n (%)
  TEAE: Neck Pain: 1 (<1%) n (%)
  TEAE: Neoplasms Benign Site Unspecified NEC: 2 (<1%) n (%)
  TEAE: Neoplasms Benign, Malignant and Unspecified (Incl Cysts and Polyps): 15 (3%) n (%)
  TEAE: Nervous System Disorders: 64 (12%) n (%)
  TEAE: Neurological Signs and Symptoms NEC: 6 (1%) n (%)
  TEAE: Neuromuscular Junction Dysfunction: 1 (<1%) n (%)
  TEAE: Neutrophil Count Decreased: 3 (<1%) n (%)
  TEAE: Night Cramps: 1 (<1%) n (%)
  TEAE: Nitrite Urine Present: 2 (<1%) n (%)
  TEAE: Non-Accidental Overdose: 1 (<1%) n (%)
  TEAE: Non-Site Specific Injuries NEC: 11 (2%) n (%)
  TEAE: Non-Site Specific Procedural Complications: 8 (1%) n (%)
  TEAE: Normal Pregnancy, Labour and Delivery*: 1 (<1%) n (%)
  TEAE: Ocular Disorders NEC: 1 (<1%) n (%)
  TEAE: Ocular Nerve and Muscle Disorders: 2 (<1%) n (%)
  TEAE: Oedema NEC: 7 (1%) n (%)
  TEAE: Oedema NOS: 1 (<1%) n (%)
  TEAE: Oedema Peripheral: 6 (1%) n (%)
  TEAE: Ophthalmic Function Diagnostic Procedures: 2 (<1%) n (%)
  TEAE: Oral Dryness and Saliva Altered: 2 (<1%) n (%)
  TEAE: Osteoarthritis Aggravated: 3 (<1%) n (%)
  TEAE: Osteoarthropathies: 4 (<1%) n (%)
  TEAE: Osteopenia: 1 (<1%) n (%)
  TEAE: Osteoporosis NOS: 3 (<1%) n (%)
  TEAE: Otitis Media NOS: 1 (<1%) n (%)
  TEAE: Ovarian Cancer NOS*: 1 (<1%) n (%)
  TEAE: Ovarian Cystadenofibroma*: 1 (<1%) n (%)
  TEAE: Ovarian Neoplasms Benign*: 1 (<1%) n (%)
  TEAE: Ovarian Neoplasms Malignant (Excl Germ Cell)*: 1 (<1%) n (%)
  TEAE: Overdoses: 1 (<1%) n (%)
  TEAE: Pain NOS: 3 (<1%) n (%)
  TEAE: Pain and Discomfort NEC: 12 (2%) n (%)
  TEAE: Pain in Limb: 6 (1%) n (%)
  TEAE: Palpitations: 4 (<1%) n (%)
  TEAE: Panic Attack: 1 (<1%) n (%)
  TEAE: Panic Symptoms: 1 (<1%) n (%)
  TEAE: Papulosquamous Conditions: 1 (<1%) n (%)
  TEAE: Paraesthesias and Dysaesthesias: 2 (<1%) n (%)
  TEAE: Paranasal Sinus Disorders (Excl Infections and Neoplasms): 9 (2%) n (%)
  TEAE: Paranasal Sinus Hypersecretion: 1 (<1%) n (%)
  TEAE: Parkinson's Disease NOS: 1 (<1%) n (%)
  TEAE: Parkinson's Disease and Parkinsonism: 1 (<1%) n (%)
  TEAE: Partial Vision Loss: 1 (<1%) n (%)
  TEAE: Pelvic Pain NOS: 2 (<1%) n (%)
  TEAE: Penile Disorders NEC (Excl Erection and Ejaculation)*: 1 (<1%) n (%)
  TEAE: Penile Haemorrhage*: 1 (<1%) n (%)
  TEAE: Perception Disturbances: 1 (<1%) n (%)
  TEAE: Periorbital Haematoma: 1 (<1%) n (%)
  TEAE: Peripheral Embolism NOS: 1 (<1%) n (%)
  TEAE: Peripheral Embolism and Thrombosis: 1 (<1%) n (%)
  TEAE: Peripheral Swelling: 1 (<1%) n (%)
  TEAE: Peripheral Vascular Disorders NEC: 2 (<1%) n (%)
  TEAE: Pharyngitis: 6 (1%) n (%)
  TEAE: Pharyngitis Streptococcal: 7 (1%) n (%)
  TEAE: Physical Examination Procedures: 9 (2%) n (%)
  TEAE: Plantar Fasciitis: 4 (<1%) n (%)
  TEAE: Pneumonia Mycoplasmal: 1 (<1%) n (%)
  TEAE: Pneumonia NOS: 2 (<1%) n (%)
  TEAE: Polydipsia: 1 (<1%) n (%)
  TEAE: Polyuria: 1 (<1%) n (%)
  TEAE: Popliteal Bursitis: 1 (<1%) n (%)
  TEAE: Post Procedural Discomfort: 2 (<1%) n (%)
  TEAE: Post Procedural Pain: 6 (1%) n (%)
  TEAE: Posterior Capsule Opacification: 1 (<1%) n (%)
  TEAE: Postnasal Drip: 1 (<1%) n (%)
  TEAE: Pregnancy NOS*: 1 (<1%) n (%)
  TEAE: Pregnancy, Puerperium and Perinatal Conditions: 1 (<1%) n (%)
  TEAE: Premenopause*: 1 (<1%) n (%)
  TEAE: Premenstrual Syndrome*: 1 (<1%) n (%)
  TEAE: Proctalgia: 4 (<1%) n (%)
  TEAE: Productive Cough: 1 (<1%) n (%)
  TEAE: Prostate and Seminal Vesicles Infections and Inflammations*: 3 (2%) n (%)
  TEAE: Prostatitis*: 3 (2%) n (%)
  TEAE: Protein Urine Present: 3 (<1%) n (%)
  TEAE: Proteinuria: 1 (<1%) n (%)
  TEAE: Pruritus Ani: 1 (<1%) n (%)
  TEAE: Pruritus NEC: 4 (<1%) n (%)
  TEAE: Pruritus NOS: 4 (<1%) n (%)
  TEAE: Psoriasis: 1 (<1%) n (%)
  TEAE: Psychiatric Disorders: 32 (6%) n (%)
  TEAE: Psychotic Disorder NEC: 1 (<1%) n (%)
  TEAE: Psychotic Disorder NOS: 1 (<1%) n (%)
  TEAE: Purine Metabolism Disorders NEC: 2 (<1%) n (%)
  TEAE: Pyrexia: 3 (<1%) n (%)
  TEAE: Rash Macular: 2 (<1%) n (%)
  TEAE: Rash NOS: 6 (1%) n (%)
  TEAE: Rashes, Eruptions and Exanthems NEC: 8 (1%) n (%)
  TEAE: Rate and Rhythm Disorders NEC: 4 (<1%) n (%)
  TEAE: Rectal Cramps: 1 (<1%) n (%)
  TEAE: Rectal Disorder NOS: 1 (<1%) n (%)
  TEAE: Rectal Haemorrhage: 8 (1%) n (%)
  TEAE: Rectal Tenesmus: 2 (<1%) n (%)
  TEAE: Red Blood Cell Analyses: 1 (<1%) n (%)
  TEAE: Red Blood Cells Urine: 1 (<1%) n (%)
  TEAE: Refractive Errors NOS: 1 (<1%) n (%)
  TEAE: Refractive and Accommodative Disorders: 1 (<1%) n (%)
  TEAE: Renal Bruit: 1 (<1%) n (%)
  TEAE: Renal Function Analyses: 4 (<1%) n (%)
  TEAE: Renal Lithiasis: 3 (<1%) n (%)
  TEAE: Renal and Urinary Disorders: 17 (3%) n (%)
  TEAE: Reproductive Organ and Breast Histopathology Procedures: 1 (<1%) n (%)
  TEAE: Reproductive System and Breast Disorders: 24 (4%) n (%)
  TEAE: Reproductive Tract Signs and Symptoms NEC: 3 (<1%) n (%)
  TEAE: Respiratory Tract Congestion: 2 (<1%) n (%)
  TEAE: Respiratory Tract Disorders NEC: 2 (<1%) n (%)
  TEAE: Respiratory Tract Infection NOS: 1 (<1%) n (%)
  TEAE: Respiratory, Thoracic and Mediastinal Disorders: 46 (9%) n (%)
  TEAE: Retinal Detachment: 1 (<1%) n (%)
  TEAE: Retinal Structural Change, Deposit and Degeneration: 1 (<1%) n (%)
  TEAE: Rheumatoid Arthritis: 1 (<1%) n (%)
  TEAE: Rheumatoid Arthritis Aggravated: 1 (<1%) n (%)
  TEAE: Rheumatoid Arthropathies: 2 (<1%) n (%)
  TEAE: Rhinitis Allergic NOS: 4 (<1%) n (%)
  TEAE: Rhinitis NOS: 3 (<1%) n (%)
  TEAE: Rhinitis Seasonal: 1 (<1%) n (%)
  TEAE: Rhinoviral Infections: 28 (5%) n (%)
  TEAE: Rib Fracture: 1 (<1%) n (%)
  TEAE: Road Traffic Accident: 1 (<1%) n (%)
  TEAE: Rosacea: 1 (<1%) n (%)
  TEAE: Rosaceas: 1 (<1%) n (%)
  TEAE: Rotator Cuff Syndrome: 1 (<1%) n (%)
  TEAE: Seasonal Allergy: 5 (<1%) n (%)
  TEAE: Seizures and Seizure Disorders NEC: 1 (<1%) n (%)
